Source: ChEMBL document CHEMBL5352435, “Recent two-year advances in anti-dengue small-molecule inhibitors” (Eur J Med Chem, 2022)
*1 amine or outer side, *2 acyl side, *3 side chain or, on linkers, in order; H or OH if unused. Where a SMILES comes first, the peptide text is derived from it. Bridges are numbered along the chain shown (N, C = ends). [ ]: non-standard residue; d: D form. The star is where a group is joined. hTyr(3S-OH,4S-OH,3'-OSO3H) = N[C@H](C(=O)O)[C@H](O)[C@@H](O)c1ccc(O)c(OS(=O)(=O)O)c1; Orn(4R-OH,5R-OH) = O=C([C@H](C[C@@H](O)[C@@H](O)N[*:3])N[*:1])[*:2]; Pro(3S-OH,4S-Me) = C[C@H]1CN[C@H](C(=O)O)[C@H]1O; X1 = CCCCCOc1ccc(-c2cc(-c3ccc(C(=O)*)cc3)no2)cc1; Gln(3R-OH) = NC(=O)C[C@@H](O)[C@H](N)C(=O)O; Hyp = O=C(O)[C@@H]1C[C@@H](O)CN1

What was measured:
dengue virus type 2 [1] = experiment: Antiviral activity against DENV2 Thailand/16681/1984 infected in golden hamster BHK-21 cells assessed as inhibition of virus induced cytopathic effect incubated for 4 to 5 days by microscopy; type: functional, organism-based
dengue virus type 2 [2] = experiment: Antiviral activity against DENV2 New Guinea C expressing […] reporter plasmid infected in human Huh-7 cells assessed as inhibition of viral replication incubated for 48 hrs by nanoluciferase assay; type: functional, organism-based; details: Huh-7, 48 h
[3] = Cytotoxicity against human Huh-7 cells assessed as reduction in cell viability incubated for 48 hrs by AlamarBlue assay; type: toxicity, cell-based
dengue virus type 3 [4] = experiment: Antiviral activity against DENV3 H87 assessed as reduction in viral RNA copy number preincubated for 1 hrs followed by infection in Vero cells and measured after 4 days by qRT-PCR analysis; type: functional, organism-based
dengue virus type 2 [5] = experiment: Antiviral activity against DENV2 infected in African green monkey Vero cells assessed as inhibition of viral titer preincubated for 16 hrs followed by viral infection and measured after 36 hrs by focus-forming assay; type: functional, organism-based
[6] = Cytotoxicity against human Huh-7 cells assessed as reduction in cell viability incubated for 24 hrs by PrestoBlue assay; type: toxicity, cell-based
dengue virus type 2 [7] = experiment: Antiviral activity against DENV2 16681 infected in human Huh-7 cells assessed as inhibition of viral titer incubated for 24 hrs by focus-forming assay; type: functional, organism-based; details: Dengue virus, 16681, Huh-7, 24 h
dengue virus type 4 [8] = experiment: Antiviral activity against DENV4 infected in Huh-7 cells assessed as inhibition of virus induced cytopathic effect incubated for 72 hrs by Hoechst 33342 staining based immunofluorescence assay; type: functional, organism-based; details: Huh-7, 72 h
Nonstructural protein 3 = Nonstructural protein 3 (Zika virus, UniProt A0A024AXB9); experiment: Inhibition of recombinant ZIKV NS2B-NS3 protease using Bz-Nle-K-K-R-AMC as substrate incubated for 1 hr by fluorescence-based microplate reader assay
Sequence of Nonstructural protein 3 (A0A024AXB9 whole entry): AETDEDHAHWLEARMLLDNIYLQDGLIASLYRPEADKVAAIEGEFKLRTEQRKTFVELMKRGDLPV

dengue virus type 3 [9] = experiment: Antiviral activity against DENV3 assessed as inhibition of viral replication; type: functional, organism-based
dengue virus type 2 [10] = experiment: Antiviral activity against DENV2 assessed as inhibition of viral replication; type: functional, organism-based
dengue virus type 1 = experiment: Antiviral activity against DENV1 assessed as inhibition of viral replication; type: functional, organism-based
dengue virus type 2 [11] = experiment: Antiviral activity against DENV2 infected in mouse assessed as survival rate at 30 mg/kg,po; type: functional
dengue virus type 4 [12] = experiment: Antiviral activity against DENV4 assessed as inhibition of viral replication; type: functional, organism-based
dengue virus type 2 [13] = experiment: Antiviral activity against DENV2 New Guinea C infected in golden hamster BHK-21 cells assessed as inhibition of plaque formation and measured after 22 hrs by crystal violet based plaque assay; type: functional, organism-based; details: BHK-21, 22 h
Genome polyprotein [14] = molecular target: T1, Genome polyprotein (dengue virus type 2, UniProt P29990); experiment: Inhibition of DENV2 NS2B/NS3 protease using Boc-Gly-Arg-Arg-MCA as substrate preincubated for 10 mins followed by substrate addition and measured after 60 mins by fluorescence microplate reader assay
T1 sequence (P29990 1346-1475 limits assumed): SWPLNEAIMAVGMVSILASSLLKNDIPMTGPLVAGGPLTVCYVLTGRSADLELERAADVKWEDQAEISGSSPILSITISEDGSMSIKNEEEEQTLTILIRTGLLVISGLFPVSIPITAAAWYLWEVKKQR
T1 sequence (P29990 1476-2093 limits assumed): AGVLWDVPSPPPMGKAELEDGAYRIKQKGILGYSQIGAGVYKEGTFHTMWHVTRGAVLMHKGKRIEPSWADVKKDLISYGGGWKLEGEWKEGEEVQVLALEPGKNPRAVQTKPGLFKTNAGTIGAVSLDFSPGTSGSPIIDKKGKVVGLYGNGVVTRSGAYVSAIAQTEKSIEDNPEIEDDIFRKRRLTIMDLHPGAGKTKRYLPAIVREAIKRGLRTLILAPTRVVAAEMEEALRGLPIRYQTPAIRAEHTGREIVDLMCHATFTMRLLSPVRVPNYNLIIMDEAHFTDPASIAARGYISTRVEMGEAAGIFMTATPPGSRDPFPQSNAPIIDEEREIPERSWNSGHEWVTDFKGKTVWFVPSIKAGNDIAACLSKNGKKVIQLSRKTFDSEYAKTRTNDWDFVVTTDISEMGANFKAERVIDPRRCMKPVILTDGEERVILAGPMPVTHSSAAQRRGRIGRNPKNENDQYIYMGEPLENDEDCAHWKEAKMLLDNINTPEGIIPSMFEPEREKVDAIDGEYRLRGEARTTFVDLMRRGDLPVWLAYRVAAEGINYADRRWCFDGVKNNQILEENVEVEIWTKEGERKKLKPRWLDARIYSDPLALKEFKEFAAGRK

Genome polyprotein [15] = molecular target: T1, Genome polyprotein; experiment: Inhibition of DENV2 NS2B (48 to 100 residues)/NS3 (14 to 185 residues) protease expressed in Escherichia coli BL21 (DE3) using Bz-Nle-Lys-Arg-Arg-AMC as substrate preincubated for 30 mins followed by substrate addition by fluorescence assay
dengue virus type 2 [16] = experiment: Antiviral activity against DENV2 New Guinea C infected in monkey LLC-MK2 cells assessed as inhibition of plaque formation incubated for 72 hrs by plaque titration assay; type: functional, organism-based; details: LLC-MK2, 72 h
dengue virus type 2 [17] = experiment: Antiviral activity against DENV2 New Guinea C infected in golden hamster BHK-21 cells assessed as inhibition of plaque formation incubated for 4 days by crystal violet staining based microscopy; type: functional, organism-based; details: BHK-21, 96 h
dengue virus type 2 [18] = experiment: Antiviral activity against DENV2 New Guinea C infected in Huh-7 cells assessed as inhibition of virus induced cytopathic effect incubated for 3 to 7 days by Neutral red assay; type: functional, organism-based

## CCCCCOc1ccc(-c2cc(-c3ccc(C(=O)N[C@H]4C[C@@H](O)[C@@H](O)NC(=O)[C@@H]5[C@@H](O)[C@@H](C)CN5C(=O)[C@H]([C@H](O)CC(N)=O)NC(=O)[C@H]([C@H](O)[C@@H](O)c5ccc(O)c(OS(=O)(=O)O)c5)NC(=O)[C@@H]5C[C@@H](O)CN5C(=O)[C@H]([C@@H](C)O)NC4=O)cc3)no2)cc1 [MICAFUNGIN] (X1-[Orn(4R-OH,5R-OH)]T[Hyp][hTyr(3S-OH,4S-OH,3'-OSO3H)][Gln(3R-OH)][Pro(3S-OH,4S-Me)]; lactam 1-C)
Dengue virus type 2 [1]
  IC50: 10.2 µM

## O=C1NCc2ccc(Nc3ccnc4ccc(Br)cc34)cc21
Dengue virus type 2 [2]
  EC50: 3.6 µM
[3]
  CC50 at 48 h: > 10 µM

## COc1cc([C@H]2Oc3cc([C@H]4Oc5cc(O)cc(O)c5C(=O)[C@@H]4O)ccc3O[C@@H]2CO)ccc1O [SILYBIN A]
Dengue virus type 3 [4]
  IC50: 18.5 µM

## O=c1cc(-c2ccccc2)oc2cc(O)c(O)c(O)c12 [BAICALEIN]
Dengue virus type 3 [4]
  IC50: 17.2 µM

## Cc1ccc(O)c(NC(=O)CCc2ccccc2)c1
Dengue virus type 2 [5]
  IC50: 1 µM

## COc1ccc2[nH]cc(CCNC(C)=O)c2c1 [MELATONIN]
[6]
  CC50 at 24 h: 3170 µM
Dengue virus type 2 [7]
  IC50: 135 µM

## O=[N+]([O-])c1ccc(Nc2ccc3[nH]ncc3c2)nc1N1CCNCC1
Dengue virus type 4 [8]
  IC50: 7.1 µM
Nonstructural protein 3
  IC50: 1.5 µM

## COc1cc(NC(C(=O)N2CCc3ccc(OC(F)(F)F)cc32)c2ccc(Cl)cc2)cc(OCCCC(=O)O)c1 (stereo not given)
Dengue virus type 3 [9]
  EC50: ≤ 0.001 µM
Dengue virus type 2 [10]
  EC50: ≤ 0.004 µM
Dengue virus type 1
  EC50: ≤ 0.001 µM
Dengue virus type 2 [11]
  Activity: 90%
Dengue virus type 4 [12]
  EC50: ≤ 0.006 µM

## Cc1ccc(C(=O)Nc2ccc(S(=O)(=O)O)c3cc(S(=O)(=O)O)cc(S(=O)(=O)O)c23)cc1NC(=O)c1cccc(NC(=O)Nc2cccc(C(=O)Nc3cc(C(=O)Nc4ccc(S(=O)(=O)O)c5cc(S(=O)(=O)O)cc(S(=O)(=O)O)c45)ccc3C)c2)c1 [SURAMIN HEXASODIUM]
Dengue virus type 2 [13]
  EC50: 0.35 µM

## O=C(CCCCCCCCc1ccc(O)cc1)c1c(O)cc(O)cc1O
Genome polyprotein [14]
  IC50: 7.55 µM

## O=c1c(O)c(-c2cc(O)c(O)c(O)c2)oc2cc(O)cc(O)c12 [MYRICETIN]
Genome polyprotein [15]
  IC50: 8.46 µM

## CC(C)(C)[Si](C)(C)Oc1ccc([C@H]2N(Nc3ccc([N+](=O)[O-])cc3)C(=O)[C@@H]3Cc4ccccc4N32)cc1
Dengue virus type 2 [10]
  EC50: 4.79 µM

## C#COc1ccc(-c2cc(=O)c3c(O)cc(O)cc3o2)cc1
Dengue virus type 2 [16]
  EC50: 7.81 µM

## Fc1cc2cn[nH]c2cc1Nc1ccnc2ccc(Br)cc12
Dengue virus type 2 [2]
  EC50: 2.3 µM
[3]
  CC50 at 48 h: > 10 µM

## COc1cc(/C=C(\C#N)C(=O)c2ccc(O)c(O)c2)cc(I)c1O
Dengue virus type 2 [13]
  EC50: 3 µM

## Cc1cc2c(F)c(Oc3ncnn4cc(OC[C@@H](C)O)c(C)c34)ccc2[nH]1 [BRIVANIB]
Dengue virus type 2 [17]
  IC50: 2.5 µM

## CC1(C)Cc2sc(NC(=O)Cc3ccc(S(N)(=O)=O)cc3)c(C#N)c2CN1CC1CCCCC1
Dengue virus type 2 [18]
  EC50: 0.023 µM
